Values quoted from earlier work as cited in patent publication US11883460B2, “Antibiotic compositions for treating bacterial infections” (AGENCY FOR SCIENCE, TECHNOLOGY AND RESEARCH, priority 2014, dated 2024).

Settings: compared with colistimethate sodium

Stability in human plasma: more stable than colistimethate sodium
Substance: Colistin sulfate
